# Test results from ChEMBL document CHEMBL1201862, “PubChem BioAssay data set” (2004).
# Active and inactive are the calls of the source.
# Legend:
# [1] = microbe, parasite or virus in culture; format: functional; conditions: Mycobacterium tuberculosis
# [2] = ZM109 Env clade C HIV-1 fusion inhibitors, dose response, HeLa effector, CEM target cells, luciferase, cherry-pick (AID 652058); format: functional, cell-based
# [3] = inhibitors of clade B AD8 Env fusion, dose response, cell-based, cherry-pick (AID 652062); format: functional;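 also: luciferase signal from cell-cell fusion driven by HIV-1 clade B AD8 Env; potency is for inhibitors of fusion seen as a drop in luminescence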
# [4] = inhibitors of HIV Env-driven cell fusion, dose response, cherry-pick (AID 652057); format: functional, cell-based
# [5] = CEM21 lymphoblast cell cytotoxicity, dose response, cytotoxicity control for viral fusion inhibitor project, CellTiter-Glo luminescence, cherry-picked (AID 652042); format: functional, cell-based;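 also: potency for signal decrease meaning cytotoxicity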
# [6] = THP-1 cell cytotoxicity, dose response, cytotoxicity control for non-replicating M. tuberculosis project (AID 489025); format: functional
# [7] = off-target signal loss in HeLa-CEM21 co-culture – HeLa F-luc CTL cells, cherry-picked, counter-screen for HIV-1 Env fusion inhibitor project, dose response (AID 652040); format: functional, cell-based;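 also: potency for signal decrease marking cytotoxic or nonspecific inhibition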
# [8] = target: T1, Fructose-bisphosphate aldolase (Mycobacterium tuberculosis, UniProt P9WQA3); test: Fluorescence-based biochemical high throughput dose response assay for inhibitors of the fructose-bisphosphate aldolase (FBA) of M. tuberculosis.; format: functional
# T1 sequence (P9WQA3 whole entry): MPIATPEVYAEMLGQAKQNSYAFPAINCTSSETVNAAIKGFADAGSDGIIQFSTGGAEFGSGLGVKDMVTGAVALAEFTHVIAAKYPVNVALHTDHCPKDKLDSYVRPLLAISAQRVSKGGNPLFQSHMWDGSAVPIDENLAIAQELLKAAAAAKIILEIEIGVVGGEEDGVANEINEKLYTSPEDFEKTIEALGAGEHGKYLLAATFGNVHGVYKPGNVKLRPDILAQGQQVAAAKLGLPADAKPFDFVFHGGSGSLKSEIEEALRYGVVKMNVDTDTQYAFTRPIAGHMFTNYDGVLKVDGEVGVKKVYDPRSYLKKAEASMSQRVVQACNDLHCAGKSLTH
# Mu-type opioid receptor = Mu-type opioid receptor (Homo sapiens, UniProt P35372); format: functional, cell-based;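 also: U2OS cells with beta-arrestin recruitment to OPRM1 by beta-gal complementation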
# [9] = target: 5-hydroxytryptamine receptor 2A (Mus musculus, UniProt P35363); format: functional, cell-based;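 also: CHO-K1 cells with tagged receptor and beta-arrestin; agonist potency measured as compound-induced activation of the receptor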
# cells [10] = format: functional, cell-based
# cells [11] = format: functional, cell-based; remark: listed apart in the source
# [12] = target: T2, Trace amine-associated receptor 1 (Homo sapiens, UniProt Q96RJ0); test: Fluorescence-based cell-based high throughput dose response assay to identify agonists of the human trace amine associated receptor 1 (TAAR1).; format: functional
# T2 sequence (Q96RJ0 whole entry): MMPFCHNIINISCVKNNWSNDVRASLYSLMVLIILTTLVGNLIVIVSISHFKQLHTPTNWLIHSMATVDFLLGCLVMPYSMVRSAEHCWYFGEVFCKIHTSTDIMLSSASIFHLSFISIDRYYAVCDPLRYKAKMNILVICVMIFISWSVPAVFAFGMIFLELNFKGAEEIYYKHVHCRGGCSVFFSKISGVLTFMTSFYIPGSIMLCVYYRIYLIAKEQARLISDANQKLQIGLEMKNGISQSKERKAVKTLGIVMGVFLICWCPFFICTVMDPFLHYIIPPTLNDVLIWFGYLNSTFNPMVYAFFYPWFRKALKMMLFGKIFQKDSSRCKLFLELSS
# [13] = target: T2, Trace amine-associated receptor 1; test: Counterscreen for agonists of the human trace amine associated receptor 1 (hTAAR1): Fluorescence-based cell-based high throughput dose response assay to identify hTAAR1 agonist that also desensitize TAAR1 receptor response.; format: functional
# [14] = target: T3, Oxysterols receptor LXR-beta (Homo sapiens, UniProt P55055); format: functional, cell-based;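 also: agonist activity at LXR measured by a cell-based luminescence readout across a dose range, run as a counterscreen for daf-12 agonists; HEK293 cells with Gal4-LXR fusion and GAL4-driven luciferase reporter; potency for activation of Gal4-LXR reporter so compounds are agonists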
# T3 sequence (P55055 whole entry): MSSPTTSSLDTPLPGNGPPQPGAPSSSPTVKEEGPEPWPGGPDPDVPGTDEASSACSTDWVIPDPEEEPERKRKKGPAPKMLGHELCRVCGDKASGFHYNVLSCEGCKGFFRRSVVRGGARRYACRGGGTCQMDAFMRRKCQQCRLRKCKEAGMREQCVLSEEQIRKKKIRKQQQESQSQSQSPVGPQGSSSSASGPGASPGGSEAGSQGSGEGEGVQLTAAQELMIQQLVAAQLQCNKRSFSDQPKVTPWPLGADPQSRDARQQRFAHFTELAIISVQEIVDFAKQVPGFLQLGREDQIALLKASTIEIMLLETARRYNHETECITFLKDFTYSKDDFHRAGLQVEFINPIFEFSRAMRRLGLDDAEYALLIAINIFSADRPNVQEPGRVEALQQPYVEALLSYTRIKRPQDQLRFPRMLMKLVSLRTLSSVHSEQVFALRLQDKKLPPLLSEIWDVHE
# [15] = intracellular Trypanosoma cruzi inhibitors in host cells – cell-based, plate reader, cherry-pick samples, set 3, dose response (AID 651818); format: functional;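 also: compounds incubated with infected cells for about four days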
# [16] = P. falciparum Dd2 growth inhibitors, dose response, SYBR Green, dry powder samples, set 9 (AID 1159568); format: functional, cell-based
# Mu-type opioid receptor, sequence (P35372 whole entry): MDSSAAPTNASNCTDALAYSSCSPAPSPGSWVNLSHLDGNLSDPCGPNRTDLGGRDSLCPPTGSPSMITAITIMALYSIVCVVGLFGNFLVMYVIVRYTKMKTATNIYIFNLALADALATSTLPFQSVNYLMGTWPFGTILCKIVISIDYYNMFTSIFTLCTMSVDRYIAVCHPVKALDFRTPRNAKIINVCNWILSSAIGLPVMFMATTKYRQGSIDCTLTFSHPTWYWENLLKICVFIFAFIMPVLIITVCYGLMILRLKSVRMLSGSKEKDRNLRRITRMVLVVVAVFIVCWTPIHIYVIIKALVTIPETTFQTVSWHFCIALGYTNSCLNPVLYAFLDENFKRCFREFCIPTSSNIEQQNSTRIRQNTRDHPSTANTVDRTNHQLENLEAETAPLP
# 5-hydroxytryptamine receptor 2A, sequence (P35363 whole entry): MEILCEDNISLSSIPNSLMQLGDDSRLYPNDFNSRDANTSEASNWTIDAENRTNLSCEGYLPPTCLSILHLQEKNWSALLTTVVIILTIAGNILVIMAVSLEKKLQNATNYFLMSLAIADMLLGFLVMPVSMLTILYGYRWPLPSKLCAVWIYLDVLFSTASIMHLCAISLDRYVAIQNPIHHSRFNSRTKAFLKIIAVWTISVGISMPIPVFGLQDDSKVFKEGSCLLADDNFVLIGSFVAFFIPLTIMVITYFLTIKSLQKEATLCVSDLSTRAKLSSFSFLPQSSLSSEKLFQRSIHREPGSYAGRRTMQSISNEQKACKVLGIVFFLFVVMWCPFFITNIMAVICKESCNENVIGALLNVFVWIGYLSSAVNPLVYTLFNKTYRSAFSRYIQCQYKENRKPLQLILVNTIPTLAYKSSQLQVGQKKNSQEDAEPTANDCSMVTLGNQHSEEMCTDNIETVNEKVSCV
smiles,measurement,setting,value
Cc1ccc(C(=O)CC(SCC(=O)O)c2ccc([N+](=O)[O-])cc2)cc1 (stereo unspecified),CC50,[1],30.6 µM (active)
Cc1cc(OCCOCCNCc2ccccc2)ccc1C(C)C,AC50,[2],1.86 µM (active)
same,AC50,[3],4.8 µM (active)
same,AC50,[4],1.55 µM (active)
same,AC50,[5],45.2 µM (active)
same,CC50,[6],> 40 µM (active)
same,AC50,[7],2.26 µM (active)
COc1ccc(C2Nc3ccccc3C(=O)N2NS(C)(=O)=O)c(OC)c1 (stereo unspecified),IC50,[8],> 1.11 µM (active)
COc1cccc(-n2cc(CNCc3cn(C)nc3-c3ccccc3F)cn2)c1,EC50,Mu-type opioid receptor,92.5 µM (inactive)
same,EC50,[9],0.772 µM (active)
CCCC[C@@H]1CNCCN1CCc1cccc2ccccc12,EC50,cells [10],> 29.9 µM (inactive)
same,IC50,cells [11],> 29.9 µM (inactive)
same,EC50,[12],4.01 µM (active)
same,IC50,[13],3.52 µM (active)
O=[N+]([O-])c1ccc2c(c1)Nc1nc3ccccc3nc1N2,EC50,[14],> 67.5 µM (inactive)
CN(C)C=O.O=C(/C=C/c1cccc(F)c1)Nc1ccc(S(=O)(=O)Nc2ncccn2)cc1,IC50,[8],> 9.99 µM (inactive)
C[C@@H]1CN([C@@H](C)CO)C(=O)c2cccc(NC(=O)c3ccc(-c4nccs4)cc3)c2O[C@H]1CN(C)C(=O)Nc1ccc(C(F)(F)F)cc1,AC50,[15],3.55 µM (active)
same,AC50,[16],6.3 µM (active)
Nc1sc2c(c1C(=O)NCCc1ccccc1)CCCC2,EC50,cells [10],> 29.9 µM (inactive)
same,IC50,cells [11],> 29.9 µM (inactive)
same,EC50,[12],1.35 µM (active)
same,IC50,[13],4.88 µM (active)
O=C(C[C@H]1C[C@@H]2c3cc(NC(=O)c4ccc5c(c4)OCO5)ccc3O[C@@H]2[C@@H](CO)O1)NCc1ccc(Oc2ccccc2)cc1,AC50,[16],28.6 µM (active)
COc1cc(/C=N/n2c(-c3ccc4c(c3)NC(=O)CO4)cs/c2=N\c2cccc(C)c2)ccc1O,CC50,[1],25 µM (active)
C/C(=N/NC(=O)c1cc(C(C)C)n[nH]1)c1cccs1,EC50,[14],> 67.6 µM (inactive)
CN(C)c1ccc2c(c1)[C@@H]1C[C@@H](CC(=O)NC3CCCCC3)O[C@@H](CO)[C@@H]1O2,AC50,[16],20.2 µM (active)
